The values below come from ChEMBL document CHEMBL1201862, “PubChem BioAssay data set” (2004).

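All cell lines were grown in 96-well plates and treated with compound for 48 hours. GI50 = concentration required for 50% inhibition of growth.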 Activity calls are given as the source filed them. No stated cut-off is given here; in the data, active = GI50 up to about 1.1 µM and inactive = higher. A value given as a limit tells only on which side of the number the result lay.

Test systems include A498; A549; ACHN; HL-60; HOP-92; Hs-578T; KM12; Malme-3M; NCI-H226; NCI-H522; OVCAR-3; OVCAR-5; SF-268; SK-MEL-28; SK-MEL-5; SK-OV-3; SR; T47D; U-251; UO-31.
Experiment in all cases: NCI tumour cell line growth inhibition, 48 h

In the case of `COC(=O)CCc1cc(OC)c(O)c(C(Cc2ccc(OC)c(OC)c2)C(=O)OC)c1` (stereo unspecified), the GI50 with A498, in the assay on A549, in the assay with ACHN, in the assay with HL-60, in the assay on HOP-92 and in the assay on Hs-578T was > 100 µM (inactive) in each case. Also, the GI50 with KM12, in the assay on Malme-3M, with NCI-H226, with NCI-H522, in the assay with OVCAR-3 and with OVCAR-5 was > 100 µM (inactive) each time. Also, the GI50 with SF-268, in the assay with SK-MEL-28, in the assay with SK-MEL-5, in the assay on SK-OV-3, in the assay on SR and in the assay with T47D was > 100 µM (inactive) each time. The GI50 with U-251 and in the assay with UO-31 was > 100 µM (inactive) throughout.
In the case of `CO/C=C(/C(=O)OC)c1ccccc1[C@H]1C[C@@H]1c1ccc(OC)cc1`, the GI50 is 28.1 µM (inactive) with A498; 20.8 µM (inactive) in the assay with A549; 22 µM (inactive) in the assay with ACHN; 25.2 µM (inactive) in the assay on HL-60; 9.33 µM (inactive) with HOP-92; 25.9 µM (inactive) in the assay with Hs-578T. The GI50 with KM12 is 18.4 µM (inactive); in the assay on Malme-3M it was 15.6 µM (inactive); in the assay on NCI-H226, 30.2 µM (inactive); with NCI-H522 it was 7.93 µM (inactive); in the assay with OVCAR-3 it was 16.3 µM (inactive); in the assay with OVCAR-5 it was 41.1 µM (inactive). The GI50 was 25.1 µM (inactive) in the assay with SF-268; 18.1 µM (inactive) in the assay on SK-MEL-28; 12.4 µM (inactive) with SK-MEL-5; 17.8 µM (inactive) in the assay with SK-OV-3; 8.73 µM (inactive) in the assay on SR; 21.1 µM (inactive) in the assay on T47D. The GI50 with U-251 is 30.8 µM (inactive); with UO-31, 26.4 µM (inactive).
For the molecule `CC1=NC(C)(C)[N+]([O-])=C1`, the GI50 with A498, in the assay on A549, with ACHN, with HL-60, in the assay on HOP-92 and in the assay with Hs-578T was > 10 µM (inactive) each time. The GI50 is > 10 µM (inactive) with KM12; 8.73 µM (inactive) with Malme-3M; > 10 µM (inactive) in the assay on NCI-H226; > 10 µM (inactive) in the assay on NCI-H522; > 10 µM (inactive) in the assay with OVCAR-3; > 10 µM (inactive) with OVCAR-5. For the same molecule, the GI50 in the assay with SF-268 is > 10 µM (inactive); in the assay on SK-MEL-28, > 10 µM (inactive); in the assay on SK-MEL-5, > 10 µM (inactive); in the assay with SK-OV-3, > 10 µM (inactive); with SR, 0.001 µM (active); with T47D, > 10 µM (inactive). Also, the GI50 with U-251 and with UO-31 was > 10 µM (inactive) throughout.
Take `O=C1Oc2ccccc2C(=O)/C1=C1/C=C(c2ccccc2)SS1`: the GI50 in the assay on A498 was > 100 µM (inactive); in the assay with A549, > 100 µM (inactive); in the assay on ACHN, > 100 µM (inactive); in the assay with HL-60, 21.9 µM (inactive); in the assay on HOP-92 it was 15.6 µM (inactive); with Hs-578T, > 100 µM (inactive). Besides, the GI50 was > 100 µM (inactive) in the assay with KM12; 96.4 µM (inactive) in the assay on Malme-3M; 24.3 µM (inactive) in the assay on NCI-H226; 49.3 µM (inactive) with NCI-H522; 71.1 µM (inactive) in the assay with OVCAR-3; > 100 µM (inactive) with OVCAR-5. Besides, the GI50 in the assay on SF-268 is 86.7 µM (inactive); with SK-MEL-28, > 100 µM (inactive); in the assay with SK-MEL-5 it was > 100 µM (inactive); with SK-OV-3, > 100 µM (inactive); in the assay on SR, 28.3 µM (inactive); in the assay on T47D, > 100 µM (inactive). In addition, the GI50 in the assay with U-251 was 76 µM (inactive); in the assay on UO-31 it was > 100 µM (inactive).
As to `COc1ccccc1N1CCN(CCCN2C(C(=O)c3ccccc3)=C(O)c3c(C)cc(C)nc3S2(=O)=O)CC1`, the GI50 is > 100 µM (inactive) in the assay with A498; 47.2 µM (inactive) with A549; 89.1 µM (inactive) in the assay with ACHN; 79.4 µM (inactive) in the assay on HL-60; 22.6 µM (inactive) in the assay with HOP-92; 59.3 µM (inactive) in the assay with Hs-578T. Besides, the GI50 in the assay on KM12 is > 100 µM (inactive); in the assay on Malme-3M, > 100 µM (inactive); in the assay on NCI-H226 it was 0.867 µM (active); in the assay on NCI-H522, 32.2 µM (inactive); in the assay on OVCAR-3, 55 µM (inactive); with OVCAR-5 it was 92.7 µM (inactive). Besides, the GI50 with SF-268 is 42.5 µM (inactive); in the assay with SK-MEL-28, > 100 µM (inactive); in the assay on SK-MEL-5, 51.9 µM (inactive); in the assay with SK-OV-3, 85.9 µM (inactive); in the assay with SR, 46.2 µM (inactive); with T47D it was > 100 µM (inactive). Moreover, the GI50 in the assay with U-251 was 58.6 µM (inactive); with UO-31, 27.8 µM (inactive).
`CCC1CCN/C(=N/S(=O)(=O)c2cc(C)c(Cl)cc2S)N1` (stereo unspecified): the GI50 in the assay on A498 is > 100 µM (inactive); in the assay with A549 it was > 100 µM (inactive); in the assay on ACHN, 34.6 µM (inactive); in the assay on HL-60, 30.8 µM (inactive); in the assay on HOP-92, 50.9 µM (inactive); in the assay on Hs-578T, 28.4 µM (inactive). Further, the GI50 with Malme-3M was 37.2 µM (inactive); in the assay on NCI-H226, 26.7 µM (inactive); in the assay on NCI-H522 it was 27.7 µM (inactive); in the assay on OVCAR-5, 22.3 µM (inactive); in the assay on SF-268 it was 57 µM (inactive); in the assay with SK-MEL-28, 52.7 µM (inactive). The GI50 in the assay on SK-MEL-5 was > 100 µM (inactive); in the assay on SK-OV-3, 40.5 µM (inactive); in the assay on SR, 35.4 µM (inactive); with T47D, 26.8 µM (inactive); in the assay with U-251, 13.8 µM (inactive); in the assay with UO-31 it was 36.3 µM (inactive).
`COc1ccc2c(c1)/C(=C\c1c(Cl)[nH]c3ccccc13)C(=O)N2`: the GI50 is 8 µM (inactive) in the assay on A498; 4.99 µM (inactive) with A549; 5.25 µM (inactive) in the assay on ACHN; 3.18 µM (inactive) in the assay with HL-60; 1.84 µM (inactive) in the assay on HOP-92; 2.51 µM (inactive) in the assay on Hs-578T. Further, the GI50 is 3.05 µM (inactive) in the assay on KM12; 5.92 µM (inactive) with Malme-3M; 16.2 µM (inactive) in the assay with NCI-H226; 3.05 µM (inactive) in the assay on NCI-H522; 6 µM (inactive) with OVCAR-3; 10.9 µM (inactive) with OVCAR-5. The GI50 in the assay on SF-268 was 4 µM (inactive); in the assay with SK-MEL-28, 3.39 µM (inactive); in the assay on SK-MEL-5, 3.6 µM (inactive); in the assay with SK-OV-3, 2.97 µM (inactive); in the assay on SR, 2.03 µM (inactive); in the assay on T47D, 26.1 µM (inactive). The GI50 in the assay with U-251 is 3.71 µM (inactive); in the assay on UO-31, 6.78 µM (inactive).
With `Clc1ccc(C2ON=C(c3ccccc3)N2C23CC4CC(CC(C4)C2)C3)cc1` (stereo unspecified), the GI50 in the assay with A498, in the assay on A549, in the assay on ACHN, with HL-60, in the assay with HOP-92 and in the assay on Hs-578T was > 10 µM (inactive) each time. Further, the GI50 in the assay on KM12, in the assay with Malme-3M, with NCI-H226, in the assay on NCI-H522, in the assay with OVCAR-3 and with OVCAR-5 was > 10 µM (inactive) in each case. In addition, the GI50 in the assay on SF-268, in the assay on SK-MEL-28, in the assay with SK-MEL-5, with SK-OV-3, with SR and in the assay with T47D was > 10 µM (inactive) in each case. In the assay on U-251, the GI50 is > 10 µM (inactive).
For the molecule `C=C(C)C(=O)OC1C(C(C)CCCO)=C(CO)CC2OC(=O)C(=C)C21` (stereo unspecified), the GI50 is 17.1 µM (inactive) with A498; 23.2 µM (inactive) with A549; 24.1 µM (inactive) in the assay on ACHN; 6.41 µM (inactive) in the assay on HL-60; 16.7 µM (inactive) with HOP-92; 16.8 µM (inactive) in the assay with Hs-578T. For the same molecule, the GI50 with KM12 was 12.6 µM (inactive); in the assay with Malme-3M, 0.509 µM (active); in the assay with NCI-H226, 37.9 µM (inactive); in the assay with NCI-H522, 3.44 µM (inactive); in the assay on OVCAR-3 it was 17.6 µM (inactive); in the assay with OVCAR-5, 22.1 µM (inactive). Also, the GI50 in the assay on SF-268 is 17.1 µM (inactive); in the assay on SK-MEL-28, 20 µM (inactive); in the assay with SK-MEL-5 it was 14 µM (inactive); in the assay with SK-OV-3 it was 29 µM (inactive); in the assay on SR, 14.5 µM (inactive); in the assay with T47D, 17.4 µM (inactive). In addition, the GI50 in the assay on U-251 is 20.2 µM (inactive).
On to `c1ccc(C2C3=C(c4ccccc4CC3)N3c4cc5c(cc4=NC34CCCCC24)Nc2ccccc2N=5)cc1` (stereo unspecified), for which the GI50 with A498 is 7.38 µM (inactive); in the assay on A549, > 10 µM (inactive); in the assay with ACHN, 7.26 µM (inactive); in the assay with HL-60, 3.77 µM (inactive); with HOP-92, 7.64 µM (inactive); in the assay with Hs-578T it was > 10 µM (inactive). Further, the GI50 with KM12 was > 10 µM (inactive); in the assay on Malme-3M, > 10 µM (inactive); in the assay with NCI-H226, 6.58 µM (inactive); in the assay with NCI-H522, 1 µM (active); in the assay with OVCAR-3 it was > 10 µM (inactive); in the assay with OVCAR-5 it was > 10 µM (inactive). For the same molecule, the GI50 was > 10 µM (inactive) in the assay on SF-268; > 10 µM (inactive) with SK-MEL-28; > 10 µM (inactive) with SK-MEL-5; > 10 µM (inactive) in the assay with SK-OV-3; 1.11 µM (active) in the assay with SR; 7.53 µM (inactive) in the assay on T47D. The results for the GI50 in the assay with U-251 and in the assay on UO-31 were > 10 µM (inactive) and 6.55 µM (inactive), respectively.
